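Cultured in 96-well plates, cells were exposed to test compound for 48 hours across five concentrations. Definition used: TGI = concentration required for complete inhibition of growth.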
What was measured:
Test in all cases: NCI anticancer screen, dose series, 48 h
A498 renal = tested on: A498 renal
MOLT-4 leukemia = tested on: MOLT-4 leukemia
OVCAR-8 ovarian = tested on: OVCAR-8 ovarian
CAKI-1 renal = tested on: CAKI-1 renal
KM12 colon = tested on: KM12 colon
SNB-19 CNS = tested on: SNB-19 CNS
KM20L2 colon = tested on: KM20L2 colon
LOX IMVI melanoma = tested on: LOX IMVI melanoma
SK-MEL-2 melanoma = tested on: SK-MEL-2 melanoma
COLO 205 colon = tested on: COLO 205 colon
K-562 leukemia = tested on: K-562 leukemia
CCRF-CEM leukemia = tested on: CCRF-CEM leukemia
SK-OV-3 ovarian = tested on: SK-OV-3 ovarian
HCT-116 colon = tested on: HCT-116 colon
NCI-H226 lung = tested on: NCI-H226 lung
M19-MEL melanoma = tested on: M19-MEL melanoma
ACHN renal = tested on: ACHN renal
DMS 273 small cell lung = tested on: DMS 273 small cell lung
SK-MEL-28 melanoma = tested on: SK-MEL-28 melanoma
XF 498 CNS = tested on: XF 498 CNS
OVCAR-5 ovarian = tested on: OVCAR-5 ovarian
NCI-H460 lung = tested on: NCI-H460 lung
IGROV1 ovarian = tested on: IGROV1 ovarian
SW-620 colon = tested on: SW-620 colon
TK-10 renal = tested on: TK-10 renal
HT29 colon = tested on: HT29 colon
HCC-2998 colon = tested on: HCC-2998 colon
HCT-15 colon = tested on: HCT-15 colon
UO-31 renal = tested on: UO-31 renal
SF-295 CNS = tested on: SF-295 CNS
HOP-62 NSCLC = tested on: HOP-62 NSCLC
RXF 393 renal = tested on: RXF 393 renal
786-0 renal = tested on: 786-0 renal
SNB-78 CNS = tested on: SNB-78 CNS
NCI-H522 lung = tested on: NCI-H522 lung
DMS 114 small cell lung = tested on: DMS 114 small cell lung
SN12C renal = tested on: SN12C renal
M14 melanoma = tested on: M14 melanoma
UACC-62 melanoma = tested on: UACC-62 melanoma
HOP-92 NSCLC = tested on: HOP-92 NSCLC
SK-MEL-5 melanoma = tested on: SK-MEL-5 melanoma
SNB-75 CNS = tested on: SNB-75 CNS
SF-539 CNS = tested on: SF-539 CNS
A549 NSCLC = tested on: A549 NSCLC
OVCAR-3 ovarian = tested on: OVCAR-3 ovarian
MALME-3M melanoma = tested on: MALME-3M melanoma
RXF-631 renal = tested on: RXF-631 renal
U251 CNS = tested on: U251 CNS
NCI-H23 lung = tested on: NCI-H23 lung
HL-60(TB) leukemia = tested on: HL-60(TB) leukemia
RPMI-8226 leukemia = tested on: RPMI-8226 leukemia
LXFL 529 NSCLC = tested on: LXFL 529 NSCLC
SF-268 CNS = tested on: SF-268 CNS
OVCAR-4 ovarian = tested on: OVCAR-4 ovarian
UACC-257 melanoma = tested on: UACC-257 melanoma
EKVX NSCLC = tested on: EKVX NSCLC
HOP-18 NSCLC = tested on: HOP-18 NSCLC
DLD-1 colon = tested on: DLD-1 colon
SR leukemia = tested on: SR leukemia

Measured: TGI

O=C(CCc1nc(=S)[nH][nH]1)Nc1cc(Cl)c(Cl)cc1Cl
not listed: EKVX NSCLC | HOP-18 NSCLC | DLD-1 colon | SR leukemia
> 100 µM: all other assays above

COc1ccccc1N1C(=O)C2c3[nH]c4ccccc4c3C3CCC(C(C)(C)C)CC3C2C1=O (stereo not given)
not listed: CAKI-1 renal | KM12 colon | LOX IMVI melanoma | SK-MEL-2 melanoma | OVCAR-5 ovarian | NCI-H460 lung | TK-10 renal | OVCAR-3 ovarian | RXF-631 renal
> 100 µM: all other assays above

Source: PubChem BioAssay (NCI)
